The record followed here is patent publication US20230278966A1, “TRIAZOLONE COMPOUNDS FOR CONTROLLING INVERTEBRATE PESTS” (FMC Corporation, priority 2020, published 2023).

The test deals with Root Knot Nematodes. The experiment in a line: Nematicide assay: control of Root Knot Nematode galling on host plant roots. The following applies: drip application, 4-day-old host plant, assessed after 8 days; for pest or weed control at 500 ppm / pest or weed control at 100 ppm: 192 h, read-out: control efficacy (decrease of nematode gall formation on roots compared to the inoculated control). The format is in vivo. Here is the method:
Test compounds were formulated using a solution containing 25% acetone and 75% water. The formulated compounds were applied in 330 μl of liquid through a drip applicator that was positioned above the top of each test unit. Test compounds were applied at 500 ppm and 100 ppm and each test was replicated three times. For evaluating control of Root Knot Nematodes the test unit consisted of a small open container with a 4-day-old host plant inside. The formulated compounds were dripped into the container and the nematodes were applied following the compound's application. The test units were held for 8 days in a growth chamber at 29.4° C. or 85 F. Root invasion by the nematodes was then visually assessed based on presence or absence of galls on the roots.

For the compound `O=C(NCCn1nc(C(F)(F)F)n(C2(C(F)(F)F)CCC2)c1=O)c1ccccc1Br` [Compound 142], the “control efficacy (decrease of nematode gall formation on roots compared to the inoculated control)” value (500 ppm) was found to be 100%.

As for `O=C(NCCn1nc(C(F)(F)F)n(C2(C(F)(F)F)CCC2)c1=O)c1cccnc1Cl` [Compound 170], for the setting “500 ppm”, the pest or weed control at 500 ppm worked out at 100%.

Consider `O=C(NCCn1nc(C(F)(F)F)n(CC2CC2)c1=O)c1ccccc1C(F)(F)F` [Compound 32, N-[2-[4-(Cyclopropylmethyl)-4,5-dihydro-5-oxo-3-(trifluoromethyl)-1H-1,2,4-triazol-1-yl]ethyl]-2-(trifluoromethyl)benzamide], for which the pest or weed control at 500 ppm (500 ppm) is 100%.

As to `O=C(NCCn1nc(C(F)(F)F)n(C2CC(F)(F)C2)c1=O)c1ccccc1Br` [Compound 143], under “500 ppm”, the “control efficacy (decrease of nematode gall formation on roots compared to the inoculated control)” value was 100%.

`CC(C)(C)n1c(C(F)(F)F)nn(CCNC(=O)c2ccccc2Cl)c1=O` [Compound 38, 2-Chloro-N-[2-[4-(1,1-dimethylethyl)-4,5-dihydro-5-oxo-3-(trifluoromethyl)-1H-1,2,4-triazol-1-yl]ethyl]benzamide]: the pest or weed control at 500 ppm (500 ppm) was 100%.

For `CC(C)(C)n1c(C(F)(F)F)nn(CCNC(=O)c2ccccc2C(F)(F)F)c1=O` [Compound 10, N-[2-[4-(1,1-Dimethylethyl)-4,5-dihydro-5-oxo-3-(trifluoromethyl)-1H-1,2,4-triazol-1-yl]ethyl]-2-(trifluoromethyl)benzamide], the pest or weed control at 500 ppm (500 ppm) turned out to be 100%.

As to `CC(C)n1c(C(F)F)nn(CCNC(=O)c2ccccc2C(F)(F)F)c1=O` [Compound 9], under “500 ppm”, the pest or weed control at 500 ppm is 100%.

For the compound `CC1(n2c(C(F)(F)F)nn(CCNC(=O)c3ccccc3C(F)(F)F)c2=O)CC1` [Compound 45], for the setting “500 ppm”, the pest or weed control at 500 ppm was 100%.

`CC(n1c(C(F)(F)F)nn(CCNC(=O)c2cccnc2C(F)(F)F)c1=O)C(F)(F)F` (centres unmarked) [Compound 175]: the “control efficacy (decrease of nematode gall formation on roots compared to the inoculated control)” value (500 ppm) is 100%.

For the compound `CC(C)(n1c(C(F)(F)F)nn(CCNC(=O)c2ncccc2C(F)(F)F)c1=O)C(F)(F)F` [Compound 160], the “control efficacy (decrease of nematode gall formation on roots compared to the inoculated control)” value (500 ppm) was 100%.

For the compound `CC(C)n1c(C(F)(F)F)nn(CCNC(=O)c2ccccc2Cl)c1=O` [Compound 31], under “500 ppm”, the pest or weed control at 500 ppm is 100%.

`CC(C)(n1c(C(F)(F)F)nn(CCNC(=O)c2cccnc2Cl)c1=O)C(F)(F)F` [Compound 171]: the “control efficacy (decrease of nematode gall formation on roots compared to the inoculated control)” value runs as follows: (100 ppm) 100%; (500 ppm) 100%.

For `O=C(NCCn1nc(C(F)(F)F)n(C2CC(F)(F)C2)c1=O)c1ccccc1C(F)(F)F` [Compound 145], the “control efficacy (decrease of nematode gall formation on roots compared to the inoculated control)” value (100 ppm) came out at 100% and the “control efficacy (decrease of nematode gall formation on roots compared to the inoculated control)” value (500 ppm) came out at 100%.

On to `O=C(NCCn1nc(C(F)(F)F)n(CC(F)(F)F)c1=O)c1ccccc1Cl` [Compound 30], for which the pest or weed control at 500 ppm (500 ppm) worked out at 100%.

Regarding `CC(C)(C)n1c(C(F)(F)F)nn(CCNC(=O)c2ccccc2Br)c1=O` [Compound 50, 2-Bromo-N-[2-[4-(1,1-dimethylethyl)-4,5-dihydro-5-oxo-3-(trifluoromethyl)-1H-1,2,4-triazol-1-yl]ethyl]benzamide], the pest or weed control at 500 ppm (500 ppm) was 100%.

Take `O=C(NCCn1nc(C(F)(F)F)n(CC(F)(F)F)c1=O)c1ccccc1C(F)(F)F` [Compound 1]: the pest or weed control at 500 ppm (500 ppm) was determined as 100%.

Regarding `CC(C)(n1c(C(F)(F)F)nn(CCNC(=O)c2ccccc2Br)c1=O)C(F)(F)F` [Compound 133], the “control efficacy (decrease of nematode gall formation on roots compared to the inoculated control)” value is, setting by setting: (100 ppm) 100%; (500 ppm) 100%.

On to `CC(n1c(C(F)(F)F)nn(CCNC(=O)c2cccnc2Cl)c1=O)C(F)(F)F` (centres unmarked) [Compound 166], for which the “control efficacy (decrease of nematode gall formation on roots compared to the inoculated control)” value (500 ppm) was determined as 100%.

Consider `O=C(NCCn1nc(C(F)(F)F)n(C2CC2)c1=O)c1ccccc1Cl` [Compound 59], for which the pest or weed control at 500 ppm (500 ppm) was found to be 100%.

Take `CC(C)n1c(C(F)(F)F)nn(CCNC(=O)c2ccccc2C(F)(F)F)c1=O` [Compound 11]: the pest or weed control at 500 ppm (500 ppm) was determined as 100%.

As to `O=C(NCCn1nc(C(F)(F)F)n(C2CC(F)(F)C2)c1=O)c1cccnc1C(F)(F)F` [Compound 173], the pest or weed control at 500 ppm (500 ppm) turned out to be 100%.

Consider `CCn1c(C(F)(F)F)nn(CCNC(=O)c2ccccc2C(F)(F)F)c1=O` [Compound 12], for which the pest or weed control at 500 ppm (500 ppm) was 100%.

Turning to `O=C(NCCn1nc(C(F)(F)F)n(C2CC2)c1=O)c1ccccc1C(F)(F)F` [Compound 2], where the note is “500 ppm”, the pest or weed control at 500 ppm was 100%.

On to `O=C(NCCn1nc(C(F)(F)F)n(C2(C(F)(F)F)CCC2)c1=O)c1ccccc1Cl` [Compound 149], for which, for the setting “500 ppm”, the “control efficacy (decrease of nematode gall formation on roots compared to the inoculated control)” value came out at 100%.

`CC(C)(C)n1c(C(F)(F)F)nn(CCNC(=O)c2cccnc2Cl)c1=O` [Compound 92, 2-Chloro-N-[2-[4-(1,1-dimethylethyl)-4,5-dihydro-5-oxo-3-(trifluoromethyl)-1H-1,2,4-triazol-1-yl]ethyl]-3-pyridinecarboxamide]: where the note is “100 ppm”, the pest or weed control at 100 ppm is 100%. The pest or weed control at 500 ppm (500 ppm) came out at 100%.

Regarding `CC(C)(n1c(C(F)(F)F)nn(CCNC(=O)c2ccccc2C(F)(F)F)c1=O)C(F)(F)F` [Compound 179, N-[2-[4,5-Dihydro-5-oxo-4-(2,2,2-trifluoro-1,1-dimethylethyl)-3-(trifluoromethyl)-1H-1,2,4-triazol-1-yl]ethyl]-2-(trifluoromethyl)benzamide], under “100 ppm”, the pest or weed control at 100 ppm was found to be 100%. The pest or weed control at 500 ppm (500 ppm) came out at 100%.

With `CC(C)(C)n1c(C(F)(F)F)nn(CCNC(=O)c2cccnc2C(F)(F)F)c1=O` [Compound 93], the pest or weed control at 500 ppm (500 ppm) is 100%.

In the case of `CC(C)(C)n1c(C(F)(F)F)nn(CCNC(=O)c2c(F)cccc2C(F)(F)F)c1=O` [Compound 128], the “control efficacy (decrease of nematode gall formation on roots compared to the inoculated control)” value (500 ppm) was 100%.

Turning to `O=C(NCCn1nc(C(F)(F)F)n(C2(C(F)(F)F)CCC2)c1=O)c1ccccc1C(F)(F)F` [Compound 139], where the note is “500 ppm”, the “control efficacy (decrease of nematode gall formation on roots compared to the inoculated control)” value is reported as 100%.

For `Cc1ccccc1C(=O)NCCn1nc(C(F)(F)F)n(C(C)(C)C(F)(F)F)c1=O` [Compound 135], the “control efficacy (decrease of nematode gall formation on roots compared to the inoculated control)” value (500 ppm) worked out at 100%.

`O=C(NCCn1nc(C(F)(F)F)n(C2CC(F)(F)C2)c1=O)c1ccccc1Cl` [Compound 148]: the “control efficacy (decrease of nematode gall formation on roots compared to the inoculated control)” value by setting is: (100 ppm) 100%; (500 ppm) 100%.

Consider `CC(C)(n1c(C(F)(F)F)nn(CCNC(=O)c2cccnc2C(F)(F)F)c1=O)C(F)(F)F` [Compound 165], for which the “control efficacy (decrease of nematode gall formation on roots compared to the inoculated control)” value runs as follows: (100 ppm) 100%; (500 ppm) 100%.

Turning to `O=C(NCCn1nc(C(F)(F)F)n(C2(C(F)(F)F)CCC2)c1=O)c1cccnc1C(F)(F)F` [Compound 169], the pest or weed control at 500 ppm (500 ppm) amounted to 100%.

Take `Cn1c(C(F)(F)F)nn(CCNC(=O)c2ccccc2C(F)(F)F)c1=O` [Compound 14, N-[2-[4,5-Dihydro-4-methyl-5-oxo-3-(trifluoromethyl)-1H-1,2,4-triazol-1-yl]ethyl]-2-(trifluoromethyl)benzamide]: under “500 ppm”, the pest or weed control at 500 ppm worked out at 100%.
